Measured values: paper PMC5052702 (Nature Communications, 2016)
Several values for one entry are separate records, joined by “and”; a condition that tells them apart may be missing. Identical values can stand only once.

Tests used:
CVB3 3C protease = target: T1, CVB3 3C protease (Coxsackievirus B3, UniProt P03313); test: FRET-based enzyme activity assay (warhead activation / inhibitor kinetics); type: biochemical, Coxsackie virus B3
T1 construct: 3C protease of Coxsackie virus B3 consisting of 183 amino-acid residues; made in house; host or cells: E. coli BL21(DE3), plasmid pET-23a(+)
T1 sequence (P03313 1541-1723): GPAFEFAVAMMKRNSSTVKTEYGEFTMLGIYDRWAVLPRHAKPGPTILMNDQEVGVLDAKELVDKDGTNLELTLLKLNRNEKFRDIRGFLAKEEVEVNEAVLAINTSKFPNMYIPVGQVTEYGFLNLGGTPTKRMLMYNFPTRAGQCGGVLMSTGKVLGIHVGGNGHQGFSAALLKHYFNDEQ
Method: The activity of the protease was measured by hydrolysis of the FRET-substrate N-Dabcyl-KTLEALFQ↓GPPVYE(Edans)-NH2. The peptide was purchased from Biosyntan (Berlin, Germany). Samples were irradiated with light with a wavelength of 355 nm and the emitted light at 538 nm was measured in relative fluorescence units (RFUs). An amount of 100 pmol of cleaved substrate equals 5,000 RFU.
Assay samples contained 10 μl of a 100 mM HEPES-NaOH buffer solution pH 7.5/1 mM EDTA, 10 μl enzyme solution (2 μM CVB3 3C^Pro), 10 μl of 10 μM substrate solution (both dissolved in the above buffer) and 1 μl Inhibitor and/or fragment dissolved in DMSO. For assay results of a dilution series of a mixture of 1 and 2 and comparison of reaction products in dependence of the assay solvent, see Supplementary Figs 1 and 2.
The screening procedure consisted of the following steps: 10 μl 100 mM HEPES-NaOH buffer solution pH 7.5/1 mM EDTA was placed in a cavity of the 384-well plate (polystyrene, Corning 3544). Then 10 μl of enzyme solution (40 μM CVB3 3C protease in 100 mM HEPES-NaOH buffer solution, pH 7.5/1 mM EDTA) was added and the plate was shaken for 2 min at 1,400 r.p.m. Afterwards, 0.5 μl of a DMSO solution of the electrophilic probe and 0.5 μl of a DMSO solution of the nucleophile was added, followed by 10 μl of substrate solution (10 μM in 100 mM HEPES-NaOH buffer solution, pH 7.5/1 mM EDTA). The plate was shaken again for 2 min at 1,400 r.p.m. and the generated fluorescence signal was measured with a Safire II Fluorimeter from Tecan. The electrophilic probe 1 was used at a concentration of 400 μM for the screening, which lowered the protease activity by 10–20%. Eight-hundred fifty primary amines were tested at a concentration of 320 μM and fragment 2 amplified the inhibitory activity of 1 most potently. Positive control samples contained only DMSO instead of the probe or the nucleophile. Negative control samples contained no active enzyme. An interfering fluorescent effect has not been observed.
When determining the inhibitory parameters of an inhibitor, the assay set-up was as mentioned but 1 μl DMSO solution of inhibitor was used instead of probe or nucleophile. Different concentrations of inhibitor were tested at least as duplicates and the pseudo-first-order association kinetics (kobs) were determined using GraphPad Prism. The slope of a plot of the different kobs values against the inhibitor concentration yielded kinact/KI.

[1] = target: T2, Coxsackie virus 3C protease (Coxsackievirus B3, UniProt P03313); test: ESI-MS of protease after incubation with inhibitor (covalent modification); type: binding; conditions: deconvoluted ESI-MS, main peak
T2 construct: 3C protease of Coxsackie virus B3 consisting of 183 amino-acid residues; made in house; host or cells: E. coli BL21(DE3), plasmid pET-23a(+)
T2 sequence (P03313 1541-1723): as above
Method: This inactivation rate corresponded to an apparent half-maximal inhibitory concentration (IC50) value of >>1 mM after 10 min (Fig. 2b, Table 1). The covalent mode of action was confirmed by electrospray ionization high-resolution ion mobility spectrometry-mass spectrometry (ESI-MS) measurements. Incubation of the protease with warhead 1 shifted the main deconvoluted mass peak of the protein from 21,471.5 to 21,588.5 Da and the observed protein mass difference of 117 Da corresponded well with the molecular weight of bis-electrophile 1 after hydrolysis of the ethyl ester.
High-resolution mass spectra were recorded on a Synapt G2-S HDMS by Waters Co. (Milford, […]) equipped with an Acquity UPLC and a Phenomenex Jupiter C-18 column (3 × 250 mm, 5 μm, 300 Å). The ionization and transfer parameters of the MS system have been optimized for a standard sample (insulin) and were applied without modification. Deconvolution of measurement results was performed by the MaxEnt1 method of the MassLynx software by Waters Co. The most important source parameters are: capillary voltage: 3.3 kV, sampling cone: 40 V, source offset: 60 V, source temperature: 100 °C, desolvation temperature: 250 °C, desolvation gas flow: 600 l h^−1. […]

CCOC(=O)[C@H]1O[C@@H]1C=O [Compound 1, ethyl (2S,3S)-epoxy-4-oxo-butanoate]
inhibition of the protease, in words (CVB3 3C protease): virtually inactive | IC50 (CVB3 3C protease; after 10 min, read-out: apparent half-maximal inhibitory concentration (IC50)): > 1 mM | lowering of protease activity (CVB3 3C protease; probe at 400 μM, screening): 10–20% | kinact/KI (CVB3 3C protease; relative inactivation rate, slope of kobs against inhibitor concentration): 2.36 M⁻¹ s⁻¹ and 2.4 ± 0.1 M⁻¹ s⁻¹ | observed protein mass difference after incubation [1]: 117 Da
